Test results as given in ChEMBL document CHEMBL4622974, “Leveraging an Open Science Drug Discovery Model to Develop CNS-Penetrant ALK2 Inhibitors for the Treatment of Diffuse Intrinsic Pontine Glioma” (J Med Chem, 2020).

Legend:
TGF-beta receptor type-1 [1] = target: T1, TGF-beta receptor type-1 (Homo sapiens, UniProt P36897); assay: Inhibition of recombinant human ALK5 expressed in HEK293 cells transfected with CAGA-luciferase and Renilla luciferase reporter after 24 hrs by dual luciferase reporter assay; format: cell-based
T1 sequence (P36897 whole entry): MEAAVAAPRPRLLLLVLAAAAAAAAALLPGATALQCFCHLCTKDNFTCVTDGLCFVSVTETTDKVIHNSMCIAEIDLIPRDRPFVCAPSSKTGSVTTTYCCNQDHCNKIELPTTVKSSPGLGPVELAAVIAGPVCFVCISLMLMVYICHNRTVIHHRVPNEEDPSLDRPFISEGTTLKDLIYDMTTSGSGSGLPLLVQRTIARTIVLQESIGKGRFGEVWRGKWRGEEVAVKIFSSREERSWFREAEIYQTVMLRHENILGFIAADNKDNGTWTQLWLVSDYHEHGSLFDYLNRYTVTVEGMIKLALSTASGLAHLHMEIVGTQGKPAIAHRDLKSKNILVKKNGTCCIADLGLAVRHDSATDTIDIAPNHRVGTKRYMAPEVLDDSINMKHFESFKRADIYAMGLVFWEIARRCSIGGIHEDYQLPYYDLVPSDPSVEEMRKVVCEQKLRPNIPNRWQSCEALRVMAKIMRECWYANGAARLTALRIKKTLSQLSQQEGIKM

TGF-beta receptor type-1 [2] = target: T1, TGF-beta receptor type-1; assay: Inhibition of human ALK5 using casein as substrate in presence of [gamma-33P]-ATP by radiometric hotspot assay; format: ADME
Activin receptor type-1 [3] = target: T2, Activin receptor type-1 (Homo sapiens, UniProt Q04771); assay: Inhibition of human ALK2 using casein as substrate in presence of [gamma-33P]-ATP by radiometric hotspot assay
T2 sequence (Q04771 whole entry): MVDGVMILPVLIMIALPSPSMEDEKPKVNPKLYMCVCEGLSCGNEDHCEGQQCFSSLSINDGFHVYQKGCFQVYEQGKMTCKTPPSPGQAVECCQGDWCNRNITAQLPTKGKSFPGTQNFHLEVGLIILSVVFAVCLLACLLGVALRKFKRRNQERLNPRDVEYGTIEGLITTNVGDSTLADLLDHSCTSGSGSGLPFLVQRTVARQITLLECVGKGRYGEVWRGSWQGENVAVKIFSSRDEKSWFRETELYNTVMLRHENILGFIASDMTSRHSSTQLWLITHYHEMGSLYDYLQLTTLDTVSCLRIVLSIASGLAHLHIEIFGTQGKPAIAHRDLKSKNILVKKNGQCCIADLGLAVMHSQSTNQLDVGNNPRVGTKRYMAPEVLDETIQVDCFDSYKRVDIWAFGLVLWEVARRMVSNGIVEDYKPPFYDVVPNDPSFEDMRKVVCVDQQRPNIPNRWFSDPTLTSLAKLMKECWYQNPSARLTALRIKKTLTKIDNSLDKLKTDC

Activin receptor type-1 [4] = target: T2, Activin receptor type-1; assay: Competitive displacement of PBI-6908 from nanoluciferase-fused ALK2 (unknown origin) expressed in HEK293 cells incubated for 2 hrs by NanoBRET NanoGlo substrate based NanoBRET assay; format: cell-based
Activin receptor type-1B = target: T3, Activin receptor type-1B (Homo sapiens, UniProt P36896); assay: Inhibition of human ALK4 using casein as substrate in presence of [gamma-33P]-ATP by radiometric hotspot assay; format: ADME
T3 sequence (P36896 whole entry): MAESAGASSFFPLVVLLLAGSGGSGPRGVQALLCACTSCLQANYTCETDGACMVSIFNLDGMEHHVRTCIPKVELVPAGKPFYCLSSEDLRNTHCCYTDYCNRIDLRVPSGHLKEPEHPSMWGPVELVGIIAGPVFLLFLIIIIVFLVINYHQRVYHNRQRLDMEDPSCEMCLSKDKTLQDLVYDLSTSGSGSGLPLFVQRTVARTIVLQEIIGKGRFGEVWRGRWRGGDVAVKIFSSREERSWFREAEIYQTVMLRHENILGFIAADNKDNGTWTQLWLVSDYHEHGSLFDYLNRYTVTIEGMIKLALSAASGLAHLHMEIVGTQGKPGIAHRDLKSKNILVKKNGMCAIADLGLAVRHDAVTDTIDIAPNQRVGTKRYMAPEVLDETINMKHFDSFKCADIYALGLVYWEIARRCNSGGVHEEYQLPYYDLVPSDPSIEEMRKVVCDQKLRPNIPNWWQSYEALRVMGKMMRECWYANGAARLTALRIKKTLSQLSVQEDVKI

[5] = Selectivity ratio of IC50 for human ALK4 to IC50 for human ALK2; format: ADME
[6] = target: Voltage-gated inwardly rectifying potassium channel KCNH2 (Homo sapiens, UniProt Q12809); assay: Inhibition of human ERG expressed in HEK293 cells after 5 mins by IonWorks barracuda patch clamp method; format: cell-based
Sequence of Voltage-gated inwardly rectifying potassium channel KCNH2 (Q12809 whole entry): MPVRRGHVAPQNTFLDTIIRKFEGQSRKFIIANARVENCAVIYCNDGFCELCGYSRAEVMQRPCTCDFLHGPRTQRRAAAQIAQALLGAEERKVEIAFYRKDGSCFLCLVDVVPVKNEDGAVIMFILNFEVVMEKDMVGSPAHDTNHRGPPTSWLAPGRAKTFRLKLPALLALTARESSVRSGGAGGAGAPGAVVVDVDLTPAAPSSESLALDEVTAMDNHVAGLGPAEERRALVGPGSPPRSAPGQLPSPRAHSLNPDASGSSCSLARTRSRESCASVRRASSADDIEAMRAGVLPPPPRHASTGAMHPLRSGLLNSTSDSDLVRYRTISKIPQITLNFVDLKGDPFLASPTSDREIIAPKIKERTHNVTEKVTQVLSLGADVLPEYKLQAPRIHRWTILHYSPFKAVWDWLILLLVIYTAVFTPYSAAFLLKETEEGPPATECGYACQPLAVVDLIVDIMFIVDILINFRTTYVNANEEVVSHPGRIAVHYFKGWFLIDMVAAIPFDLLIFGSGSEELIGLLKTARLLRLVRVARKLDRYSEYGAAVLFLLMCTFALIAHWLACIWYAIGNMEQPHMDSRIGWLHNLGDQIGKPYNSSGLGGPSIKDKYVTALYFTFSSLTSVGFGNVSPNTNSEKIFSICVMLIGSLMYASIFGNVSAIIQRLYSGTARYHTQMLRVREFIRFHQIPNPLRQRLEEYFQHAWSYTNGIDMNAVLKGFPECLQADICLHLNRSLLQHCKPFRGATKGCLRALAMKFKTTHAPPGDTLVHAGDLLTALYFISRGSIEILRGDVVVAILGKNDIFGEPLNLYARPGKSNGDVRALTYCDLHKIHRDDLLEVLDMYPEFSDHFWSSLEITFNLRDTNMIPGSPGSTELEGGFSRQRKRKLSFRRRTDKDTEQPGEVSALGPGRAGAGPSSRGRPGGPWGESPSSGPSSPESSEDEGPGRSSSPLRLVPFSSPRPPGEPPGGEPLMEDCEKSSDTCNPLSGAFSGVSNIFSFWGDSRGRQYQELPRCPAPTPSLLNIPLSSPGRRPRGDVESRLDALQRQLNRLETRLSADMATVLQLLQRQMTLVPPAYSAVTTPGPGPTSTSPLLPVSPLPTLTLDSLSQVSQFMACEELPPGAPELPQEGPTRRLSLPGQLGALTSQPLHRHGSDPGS

[7] = Efflux ratio of apparent permeability across basolateral to apical over apical to basolateral side in human Caco2 cells at 5 uM incubated for 2 hrs by LC/MS/MS analysis; settings: Caco-2
[8] = Apparent permeability across apical to basolateral side in human Caco2 cells at 5 uM after 120 mins by LC-MS/MS analysis; settings: Caco-2
[9] = Toxicity in CB17 SCID mouse assessed as induction of adverse effect at 10 mg/kg, po; format: organism-based; settings: in vivo
[10] = Half life in CD1 mouse liver microsomes at 1 uM incubated for 60 mins by LC/MS analysis; format: ADME, Microsome
[11] = Cmax in CB17 SCID mouse at 10 mg/kg, po after 0.25 to 24 hrs by LC/MS/MS method; format: ADME, organism-based; parameters: dose 10 mg/kg, route oral; settings: in vivo
[12] = Half life in CB17 SCID mouse at 10 mg/kg, po after 0.25 to 24 hrs by LC/MS/MS method; format: ADME, organism-based; settings: in vivo
[13] = Toxicity in CB17 SCID mouse assessed as induction of adverse effect at 2 mg/kg, iv; format: organism-based; settings: in vivo
[14] = Clearance in CB17 SCID mouse at 2 mg/kg, iv after 0.25 to 24 hrs by LC/MS/MS method; format: ADME, organism-based; settings: in vivo
[15] = Half life in human liver microsomes at 1 uM incubated for 60 mins by LC/MS analysis; format: ADME, Microsome
[16] = Stability in human liver microsomes assessed as compound remaining at 1 uM incubated for 60 mins by LC/MS analysis; format: ADME, Microsome; settings: read-out: Stability
[17] = Oral bioavailability in CB17 SCID mouse at 10 mg/kg after 0.25 to 24 hrs by LC/MS/MS method; format: ADME, organism-based; settings: in vivo
[18] = Apparent permeability across basolateral to apical side in human Caco2 cells at 5 uM after 120 mins by LC-MS/MS analysis; format: ADME, cell-based; settings: Caco-2
[19] = AUCinfinity in CB17 SCID mouse at 10 mg/kg, po after 0.25 to 24 hrs by LC/MS/MS method; format: ADME, organism-based; parameters: dose 10 mg/kg, time infinity, route oral; settings: in vivo
[20] = Volume of distribution at steady state in CB17 SCID mouse at 2 mg/kg, iv after 0.25 to 24 hrs by LC/MS/MS method; format: ADME, organism-based; settings: in vivo, read-out: Vdss
[21] = Stability in CD1 mouse liver microsomes assessed as compound remaining at 1 uM incubated for 60 mins by LC/MS analysis; format: ADME, Microsome; settings: read-out: Stability

Compound	IC50 (TGF-beta receptor type-1 [1]) [nM]	IC50 (TGF-beta receptor type-1 [2]) [nM]	IC50 (Activin receptor type-1 [3]) [nM]	IC50 (Activin receptor type-1 [4]) [nM]	other results
COc1cc(-c2cncc(-c3ccc(N4CCN(C(=O)N(C)C)CC4)cc3)c2C)cc(OC)c1OC	> 5000	> 5000	4	149	
COc1cc(-c2cncc(-c3ccc(N4CCNCC4)cc3)c2)cc(OC)c1OC					IC50 (Activin receptor type-1B): 462 nM; Ratio IC50 [5]: 36
COc1cc(-c2cncc(-c3ccc(N4CCN(C)CC4)cc3)c2C)cc(OC)c1OC	> 5000	4850	9	56	
COc1cc(-c2cncc(-c3ccc(OC4CCN(C)CC4)cc3)c2C)cc(OC)c1OC	2090	1650	6	67	
COc1cc(-c2cncc(-c3ccc(N4CCNCC4)cc3)c2C2CC2)cc(OC)c1OC	> 5000	4660	42	159	
COc1cc(-c2cncc(-c3ccc(N4CCN(C(C)C)CC4)cc3)c2C)cc(OC)c1OC	1820	2240	7	73	IC50 [6]: 3100 nM
COc1cc(-c2cncc(-c3ccc(CN4CCN(C)CC4)cc3)c2C)cc(OC)c1OC	> 5000	2640	20	108	
COc1cc(-c2cncc(-c3ccc(N4CCNCC4)cc3)c2OC)cc(OC)c1OC	> 5000	> 5000	103	233	
COc1cc(-c2cncc(-c3ccc(N4CCNCC4)cc3)c2C(F)(F)F)cc(OC)c1OC	> 5000	> 5000	67	184	
COc1cc(-c2cncc(-c3ccc(N4CCNCC4)cc3)c2N)cc(OC)c1OC	> 5000	> 5000	461	255	
COc1cc(-c2cncc(-c3ccc(N4CCN(S(C)(=O)=O)CC4)cc3)c2C)cc(OC)c1OC	6390	1980	29	59	efflux ratio at 2 h, 5 µM [7]: 1; Papp A→B at 2 h, 5 µM [8]: 34.5 ×10⁻⁶ cm/s; Activity [9]: Non-Toxic; IC50 (Activin receptor type-1B): 1130 nM; half-life at 1 µM [10]: > 1 h; Cmax [11]: 1.43 µM; IC50 [6]: > 50000 nM; half-life [12]: 0.8 h; Activity [13]: Non-Toxic; clearance [14]: 7.9 mL/min/kg; half-life at 1 µM [15]: > 1 h; remaining at 1 h, 1 µM [16]: 83.6%; bioavailability [17]: 7%; Papp B→A at 2 h, 5 µM [18]: 33.8 ×10⁻⁶ cm/s; AUC(0-inf) [19]: 2.97 µM·h; Vd [20]: 0.48 L/kg; remaining at 1 h, 1 µM [21]: 100%; Ratio IC50 [5]: 39
COc1cc(-c2cncc(-c3ccc(N4CCS(=O)(=O)CC4)cc3)c2C)cc(OC)c1OC	> 5000	1230	16	169	
COc1cc(-c2cncc(-c3ccc(C4=CCN(C)CC4)cc3)c2C)cc(OC)c1OC	7800	2520	14	102	
COc1cc(-c2cncc(-c3ccc(OC4CCNCC4)cc3)c2C)cc(OC)c1OC	1910	2850	6	31	efflux ratio at 2 h, 5 µM [7]: 2.3; Papp A→B at 2 h, 5 µM [8]: 4.1 ×10⁻⁶ cm/s; Activity [9]: Non-Toxic; IC50 (Activin receptor type-1B): 1360 nM; half-life at 1 µM [10]: > 1 h; Cmax [11]: 4.71 µM; IC50 [6]: 8100 nM; half-life [12]: 7.7 h; Activity [13]: Non-Toxic; clearance [14]: 6 mL/min/kg; half-life at 1 µM [15]: > 1 h; remaining at 1 h, 1 µM [16]: 62.1%; bioavailability [17]: 96%; Papp B→A at 2 h, 5 µM [18]: 9.4 ×10⁻⁶ cm/s; AUC(0-inf) [19]: 65.8 µM·h; Vd [20]: 2.23 L/kg; remaining at 1 h, 1 µM [21]: 39.3%; Ratio IC50 [5]: 227
COc1cc(-c2cncc(-c3ccc(N4CCN(C(C)=O)CC4)cc3)c2C)cc(OC)c1OC	> 5000	2520	22	267	
COc1cc(-c2cncc(-c3ccc(N4CCOCC4)cc3)c2C)cc(OC)c1OC	> 5000	2360	28	334	
COc1cc(OC)cc(-c2cncc(-c3ccc(N4CCNCC4)cc3)c2C)c1	> 5000	> 5000	39	440	
COc1cc(-c2cncc(-c3ccc(N4CCNCC4)cc3)c2C#N)cc(OC)c1F	1510	487	11	49	
COc1cc(-c2cncc(-c3ccc(N4CCCNCC4)cc3)c2C)cc(OC)c1OC	4530	3050	13	83	
COc1cc(-c2cncc(-c3ccc(N4CCNCC4)cc3)c2F)cc(OC)c1OC	2180	880	15	32	IC50 (Activin receptor type-1B): 630 nM; Ratio IC50 [5]: 42
COc1cc(-c2cncc(-c3ccc(N4CCN(CCF)CC4)cc3)c2C)cc(OC)c1OC	> 5000	3210	17	178	
CCc1c(-c2ccc(N3CCNCC3)cc2)cncc1-c1cc(OC)c(OC)c(OC)c1	> 5000	> 5000	181	589	
COc1cc(-c2cncc(-c3ccc(C4CCNCC4)cc3)c2C)cc(OC)c1OC	3420	1750	9	54	
COc1cc(-c2cncc(-c3ccc(N4CCNCC4)cc3)c2Cl)cc(OC)c1OC	9450	1330	16	57	IC50 (Activin receptor type-1B): 962 nM; IC50 [6]: 2700 nM; Ratio IC50 [5]: 60
COc1cc(-c2cncc(-c3ccc(N4CCNCC4)cc3)c2C#N)cc(OC)c1OC	679	731	3	15	IC50 (Activin receptor type-1B): 257 nM; IC50 [6]: 6000 nM; Ratio IC50 [5]: 86
COc1cc(-c2cncc(-c3ccc(N4C[C@@H](C)N[C@@H](C)C4)cc3)c2C)cc(OC)c1OC	1430	1050	8	40	IC50 [6]: 5900 nM
